# According to PubChem BioAssay AID330 (DTP/NCI, 2004):
# “And” between values parts separate entries of the source, which are not always exact repeats. Equal entries are not always repeated. Toxic doses and inconclusive results are not listed.
# Test system: P388 leukemia ip, CD2F1 mice, survival T/C
# Assay: NCI In Vivo Anticancer Drug Screen. Data for tumor model P388 Leukemia (intraperitoneal) in CD2F1 (CDF1) mice
# Details: endpoint: median survival time, higher = longer survival
# Outline: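 Mice carrying the transplanted tumor received test compound or vehicle. Survival was recorded in each group, and the value is the treated-group measurement divided by that of the vehicle-treated control group.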
# [1] = dose: 50.0 mg/kg/injection, schedule: Q01DX005 (ip), vehicle: saline with Tween-80
# [2] = dose: 100.0 mg/kg/injection, schedule: Q01DX005 (ip), vehicle: saline with Tween-80
# [3] = dose: 200.0 mg/kg/injection, schedule: Q01DX005 (ip), vehicle: saline with Tween-80
# [4] = dose: 60.0 mg/kg/injection, schedule: Q01DX005 (ip), vehicle: saline with Tween-80
# [5] = dose: 10.0 mg/kg/injection, schedule: Q01DX009 (ip), vehicle: Klucel (hydroxypropylcellulose) (HPC)
# [6] = dose: 20.0 mg/kg/injection, schedule: Q01DX009 (ip), vehicle: Klucel (hydroxypropylcellulose) (HPC)
# [7] = dose: 50.0 mg/kg/injection, schedule: Q01DX009 (ip), vehicle: saline with Tween-80
# [8] = dose: 100.0 mg/kg/injection, schedule: Q01DX009 (ip), vehicle: saline with Tween-80
# [9] = dose: 200.0 mg/kg/injection, schedule: Q01DX009 (ip), vehicle: saline with Tween-80
# [10] = dose: 60.0 mg/kg/injection, schedule: Q01DX005 (ip), vehicle: saline
# [11] = dose: 120.0 mg/kg/injection, schedule: Q01DX005 (ip), vehicle: saline
# [12] = dose: 100.0 mg/kg/injection, schedule: Q04DX002 (ip), vehicle: saline with Tween-80
# [13] = dose: 200.0 mg/kg/injection, schedule: Q04DX002 (ip), vehicle: saline with Tween-80
# [14] = dose: 400.0 mg/kg/injection, schedule: Q04DX002 (ip), vehicle: saline with Tween-80
# [15] = dose: 50.0 mg/kg/injection, schedule: Q01DX005 (ip), vehicle: Klucel (hydroxypropylcellulose) (HPC)
# [16] = dose: 100.0 mg/kg/injection, schedule: Q01DX005 (ip), vehicle: Klucel (hydroxypropylcellulose) (HPC)
# [17] = dose: 200.0 mg/kg/injection, schedule: Q01DX005 (ip), vehicle: Klucel (hydroxypropylcellulose) (HPC)
# [18] = dose: 25.0 mg/kg/injection, schedule: Q01DX001 (ip), vehicle: saline
# [19] = dose: 50.0 mg/kg/injection, schedule: Q01DX001 (ip), vehicle: saline
# [20] = dose: 6.25 mg/kg/injection, schedule: Q01DX009 (ip), vehicle: Klucel (hydroxypropylcellulose) (HPC)
# [21] = dose: 12.5 mg/kg/injection, schedule: Q01DX009 (ip), vehicle: Klucel (hydroxypropylcellulose) (HPC)
compound,measurement,setting,value
O=C1c2cccnc2C(=O)C2CC3=C(CCCC3)CC12 (centres undefined),T/C,[1],100 % of control
same,T/C,[2],100 % of control
same,T/C,[3],100 % of control
COc1ccc(Cc2nnc(NN)[nH]c2=O)cc1OC,T/C,[4],101 % of control
same,T/C,"dose: 120.0 mg/kg/injection, schedule: Q01DX005 (ip), vehicle: saline with Tween-80",97 % of control
O=C(O)CSC(=O)NCCCCCCNC(=O)Nc1ccccc1,T/C,[1],104 % of control
same,T/C,[2],105 % of control
same,T/C,[3],112 % of control
CN(C)CC(O)c1ccc2ccc3ccccc3c2c1 (centres undefined),T/C,"dose: 100.0 mg/kg/injection, schedule: Q01DX001 (ip), vehicle: Klucel (hydroxypropylcellulose) (HPC)",102 % of control
same,T/C,"dose: 200.0 mg/kg/injection, schedule: Q01DX001 (ip), vehicle: Klucel (hydroxypropylcellulose) (HPC)",101 % of control
same,T/C,"dose: 400.0 mg/kg/injection, schedule: Q01DX001 (ip), vehicle: Klucel (hydroxypropylcellulose) (HPC)",101 % of control
C=C1CC=CC(C)(C)C12CC(Br)C(C)(Cl)CC2O (centres undefined),T/C,[5],115 % of control
same,T/C,[6],109 % of control
same,T/C,"dose: 40.0 mg/kg/injection, schedule: Q01DX009 (ip), vehicle: Klucel (hydroxypropylcellulose) (HPC)",106 % of control
CC(NC(=O)OCc1ccccc1)C(=O)Oc1cc(Cl)c(Cl)cc1Cl (centres undefined),T/C,[7],109 % of control
same,T/C,[8],104 % of control
same,T/C,[9],107 % of control
CN(C)CCSc1nc2ccccc2s1,T/C,[10],101 % of control
same,T/C,[11],104 % of control
Nc1nc(-c2cccnc2)cc(-c2cc(-c3cccnc3)nc(N)n2)n1,T/C,[10],96 % of control
same,T/C,[11],100 % of control
O=C(Nc1ccc(Cl)cc1)c1cc2c(cc1O)[nH]c1ccccc12,T/C,[1],92 % of control
same,T/C,[2],96 % of control
same,T/C,[3],98 % of control
OC(COc1c2ccccc2nc2ccccc12)CN1CCN(c2cccc(Cl)c2)CC1 (centres undefined),T/C,[1],90 % of control
same,T/C,[2],88 % of control
same,T/C,[3],90 % of control
O=C1CSC(c2cc(Cl)ccc2[N+](=O)[O-])N1c1nncs1 (centres undefined),T/C,[12],87 % of control
same,T/C,[13],87 % of control
same,T/C,[14],88 % of control
O=c1sc2ccccc2n1CN(CCO)Cn1c(=O)sc2ccccc21,T/C,[15],91 % of control
same,T/C,[16],89 % of control
same,T/C,[17],90 % of control
O=S(=O)(O)Oc1c(S(=O)(=O)O)c(S(=O)(=O)O)c(O)c(S(=O)(=O)O)c1S(=O)(=O)O,T/C,[18],111 % of control
same,T/C,[19],113 % of control
same,T/C,"dose: 100.0 mg/kg/injection, schedule: Q01DX001 (ip), vehicle: saline with Tween-80",103 % of control
same,T/C,"dose: 100.0 mg/kg/injection, schedule: Q01DX001 (ip), vehicle: saline",94 % of control
O=c1c(CCl)c(-c2ccc([N+](=O)[O-])cc2)sc2ccccc12,T/C,[12],100 % of control
same,T/C,[13],98 % of control
same,T/C,[14],92 % of control
CCOC(=O)Nc1nc2ccccc2n1CN1CCN(c2ccccc2)CC1,T/C,"dose: 25.0 mg/kg/injection, schedule: Q01DX005 (ip), vehicle: Klucel (hydroxypropylcellulose) (HPC)",92 % of control
same,T/C,[15],95 % of control
same,T/C,[16],100 % of control
Cc1ccc(Sc2cccc3c(C)c4cccc5c4c(c23)C[S+]5c2ccc(C)cc2)cc1 (centres undefined),T/C,"dose: 2.0 mg/kg/injection, schedule: Q01DX009 (ip), vehicle: saline with Tween-80",104 % of control
same,T/C,"dose: 3.0 mg/kg/injection, schedule: Q01DX009 (ip), vehicle: saline with Tween-80",122 % of control
COc1ccc(/C=C/C(=O)c2cc(O)cc(OC)c2)cc1,T/C,[20],101 % of control
same,T/C,[21],96 % of control
same,T/C,"dose: 25.0 mg/kg/injection, schedule: Q01DX009 (ip), vehicle: Klucel (hydroxypropylcellulose) (HPC)",101 % of control
same,T/C,"dose: 50.0 mg/kg/injection, schedule: Q01DX009 (ip), vehicle: Klucel (hydroxypropylcellulose) (HPC)",110 % of control
COC1=CC(C)C2CC3OC(=O)CC4C(C)C(=O)C(O)C(C2(C)C1=O)C34C (centres undefined),T/C,"dose: 2.5 mg/kg/injection, schedule: Q01DX009 (ip), vehicle: Klucel (hydroxypropylcellulose) (HPC)",90 % of control
same,T/C,"dose: 5.0 mg/kg/injection, schedule: Q01DX009 (ip), vehicle: Klucel (hydroxypropylcellulose) (HPC)",100 % of control
same,T/C,[5],106 % of control
same,T/C,[6],98 % of control
O=C1OC(OC/C(Br)=C(\Br)COC2OC(=O)C(Cl)=C2Cl)C(Cl)=C1Cl (centres undefined),T/C,"dose: 15.0 mg/kg/injection, schedule: Q01DX005 (ip), vehicle: saline with Tween-80",103 % of control
same,T/C,"dose: 30.0 mg/kg/injection, schedule: Q01DX005 (ip), vehicle: saline with Tween-80",103 % of control
same,T/C,[4],112 % of control
CCCN(CCC)CC(=O)NC1c2ccccc2Oc2ccccc21,T/C,[15],101 % of control
same,T/C,[16],101 % of control
same,T/C,[17],90 % of control
CCc1ccc(C2=C(O)C(=O)C(c3ccc(CC)cc3)=C(O)C2=O)cc1,T/C,"dose: 6.25 mg/kg/injection, schedule: Q01DX009 (ip), vehicle: saline with Tween-80",100 % of control
same,T/C,"dose: 12.5 mg/kg/injection, schedule: Q01DX009 (ip), vehicle: saline with Tween-80",110 % of control
same,T/C,"dose: 33.0 mg/kg/injection, schedule: Q01DX009 (ip), vehicle: saline with Tween-80",163 % of control
O=C(c1ccc2cc(Cl)c(Cl)cc2c1)C(Cl)Cl,T/C,"dose: 1.56 mg/kg/injection, schedule: Q01DX009 (ip), vehicle: Klucel (hydroxypropylcellulose) (HPC)",116 % of control
same,T/C,"dose: 3.12 mg/kg/injection, schedule: Q01DX009 (ip), vehicle: Klucel (hydroxypropylcellulose) (HPC)",104 % of control
same,T/C,[20],101 % of control and 97 % of control
same,T/C,[21],88 % of control
Cc1c(-c2ccccc2)ccnc1/C=N/NC(=S)NCCCN(C)C,T/C,"dose: 12.5 mg/kg/injection, schedule: Q01DX009 (ip), vehicle: other",105 % of control
same,T/C,"dose: 25.0 mg/kg/injection, schedule: Q01DX009 (ip), vehicle: other",114 % of control
same,T/C,"dose: 50.0 mg/kg/injection, schedule: Q01DX009 (ip), vehicle: other",101 % of control and 112 % of control
NCC(S)c1ccc(Cl)cc1 (centres undefined),T/C,"dose: 12.5 mg/kg/injection, schedule: Q01DX001 (ip), vehicle: saline",100 % of control
same,T/C,[18],100 % of control
same,T/C,[19],100 % of control
COC(=O)C(C(=O)OC)C(CC(=O)c1ccccc1)c1ccccc1 (centres undefined),T/C,[7],109 % of control
same,T/C,[8],103 % of control
same,T/C,[9],103 % of control
O=C1c2cc(I)ccc2NC(O)c2cccn21 (centres undefined),T/C,"dose: 0.1 mg/kg/injection, schedule: Q01DX005 (ip), vehicle: water",93 % of control
same,T/C,"dose: 0.2 mg/kg/injection, schedule: Q01DX005 (ip), vehicle: water",93 % of control
same,T/C,"dose: 0.4 mg/kg/injection, schedule: Q01DX005 (ip), vehicle: water",99 % of control
same,T/C,"dose: 0.8 mg/kg/injection, schedule: Q01DX005 (ip), vehicle: water",100 % of control
same,T/C,"dose: 1.6 mg/kg/injection, schedule: Q01DX005 (ip), vehicle: water",96 % of control
same,T/C,"dose: 5.0 mg/kg/injection, schedule: Q01DX005 (ip), vehicle: distilled water + Tween-80",94 % of control
same,T/C,"dose: 10.0 mg/kg/injection, schedule: Q01DX005 (ip), vehicle: distilled water + Tween-80",100 % of control
same,T/C,"dose: 20.0 mg/kg/injection, schedule: Q01DX005 (ip), vehicle: distilled water + Tween-80",99 % of control
same,T/C,"dose: 40.0 mg/kg/injection, schedule: Q01DX005 (ip), vehicle: distilled water + Tween-80",92 % of control
same,T/C,"dose: 80.0 mg/kg/injection, schedule: Q01DX005 (ip), vehicle: distilled water + Tween-80",93 % of control
CN(C)c1ccc(N=C(C#N)c2ccc(Cl)cc2)cc1,T/C,"dose: 50.0 mg/kg/injection, schedule: Q04DX003 (ip), vehicle: Klucel (hydroxypropylcellulose) (HPC)",99 % of control
same,T/C,"dose: 100.0 mg/kg/injection, schedule: Q04DX003 (ip), vehicle: Klucel (hydroxypropylcellulose) (HPC)",96 % of control
same,T/C,"dose: 200.0 mg/kg/injection, schedule: Q04DX003 (ip), vehicle: Klucel (hydroxypropylcellulose) (HPC)",103 % of control
same,T/C,"dose: 400.0 mg/kg/injection, schedule: Q04DX003 (ip), vehicle: Klucel (hydroxypropylcellulose) (HPC)",96 % of control
